These are literature values, as cited in US20140010884A1, “DERMATOLOGICAL COMPOSITIONS COMPRISING RETINOIDS, DISPERSED BENZOYL PEROXIDE AND CARRAGEENANS” (GALDERMA RESEARCH & DEVELOPMENT, priority 2008, published 2014).

Like-named read-outs stand apart in the source and are kept apart here.

For data set [1] the following is noted: for decomposition time: 40° C.
The conditions of data set [2]: in PEG 400 and ethanol.

Consider `CC1=C(/C=C/C(C)=C/C=C/C(C)=C/C(=O)O)C(C)(C)CCC1` [tretinoin], for which the “retinoid decomposing in presence of benzoyl peroxide” value by setting is: (in 2 hours) 50%; (in 24 hours) 95%.
With `O=C(OOC(=O)c1ccccc1)c1ccccc1` [benzoyl peroxide], the decomposition time in data set [1] (in PEG 400 (0.5 mg/g)) is given as 1.4 days; in data set [1] (in ethanol) it was 29 days; in data set [1] (in propylene glycol) it was 53 days. Further, the “decomposition in suspension (dispersed form)” value in data set [1] (in water and propylene glycol, after storing for 90 days) was “not decomposed”. For the same compound, the solubility entry in data set [2] is given as “particularly soluble”.
With `COc1ccc(-c2ccc3cc(C(=O)O)ccc3c2)cc1C12CC3CC(CC(C3)C1)C2` [adapalene, 6-[3-(1-adamantyl)-4-methoxyphenyl]-2-naphthoic acid], the “decomposition of retinoid in presence of benzoyl peroxide” value (during 24 hours) is recorded as “no decomposition”.
